Reference: PubChem BioAssay AID1259407 (Chemical Carcinogenesis Research Information System (CCRIS), 2018)
The source made the active and inactive calls. No rule for the calls is given here.

Test system: CCRIS mutagenicity, Ames/micronucleus/aberration tests
Test: CCRIS mutagenicity studies
[1] = Test System: AMES SALMONELLA TYPHIMURIUM, Strain/Indicator: TA100, Metabolic Activation: RAT, LIVER, S-9, AROCLOR 1254, Method: PREINCUBATION
[2] = Test System: AMES SALMONELLA TYPHIMURIUM, Strain/Indicator: TA98, Metabolic Activation: NONE, Method: STANDARD PLATE
[3] = Test System: AMES SALMONELLA TYPHIMURIUM, Strain/Indicator: TA98, Metabolic Activation: NONE, Method: PREINCUBATION
[4] = Test System: AMES SALMONELLA TYPHIMURIUM, Strain/Indicator: TA100, Metabolic Activation: NONE, Method: PREINCUBATION

Measured: mutagenic call

CN(N=O)c1ccccc1
inactive: Test System: AMES SALMONELLA TYPHIMURIUM, Strain/Indicator: HISG428, Metabolic Activation: RAT, LIVER, S-9, AROCLOR 1254, Method: PREINCUBATION inactive; negative | Test System: AMES SALMONELLA TYPHIMURIUM, Strain/Indicator: TA1537, Metabolic Activation: RAT, LIVER, S-9, PHENOBARBITAL, Method: STANDARD PLATE inactive; negative | Test System: AMES SALMONELLA TYPHIMURIUM, Strain/Indicator: TA2659, Metabolic Activation: RAT, LIVER, S-9, AROCLOR 1254, Method: PREINCUBATION inactive; negative | Test System: AMES SALMONELLA TYPHIMURIUM, Strain/Indicator: YG7108-PCW, Metabolic Activation: NONE, Method: PREINCUBATION inactive; negative | Test System: AMES SALMONELLA TYPHIMURIUM, Strain/Indicator: YG7108, Metabolic Activation: RAT LIVER S-9, PHENOBARBITAL AND 5,6-BENZOFLAVONE, Method: PREINCUBATION inactive; negative
active: [1] active; positive | Test System: AMES SALMONELLA TYPHIMURIUM, Strain/Indicator: TA104, Metabolic Activation: RAT, LIVER, S-9, AROCLOR 1254, Method: PREINCUBATION active; positive | Test System: AMES SALMONELLA TYPHIMURIUM, Strain/Indicator: TA1537, Metabolic Activation: RAT, LIVER, S-9, PYRAZOLE, Method: STANDARD PLATE active; positive | Test System: AMES SALMONELLA TYPHIMURIUM, Strain/Indicator: TA1537, Metabolic Activation: RAT, LIVER, S-9, Method: LIQUID INCUBATION active; positive | Test System: AMES SALMONELLA TYPHIMURIUM, Strain/Indicator: TA2638, Metabolic Activation: RAT, LIVER, S-9, AROCLOR 1254, Method: PREINCUBATION active; positive | Test System: AMES SALMONELLA TYPHIMURIUM, Strain/Indicator: YG7108-2A6-OR, Metabolic Activation: NONE, Method: PREINCUBATION active; positive | Test System: AMES SALMONELLA TYPHIMURIUM, Strain/Indicator: YG7108-2A6, Metabolic Activation: NONE, Method: PREINCUBATION active; positive

COC1=CC(=O)c2c(ncc3c2[nH]c2ccncc23)C1=O
inactive: Test System: AMES SALMONELLA TYPHIMURIUM, Strain/Indicator: TA97A, Metabolic Activation: RAT LIVER S-9, AROCLOR 1254, Method: STANDARD PLATE inactive; negative
active: Test System: AMES SALMONELLA TYPHIMURIUM, Strain/Indicator: TA97A, Metabolic Activation: NONE, Method: STANDARD PLATE active; positive | [2] active; positive | Test System: AMES SALMONELLA TYPHIMURIUM, Strain/Indicator: TA98, Metabolic Activation: RAT LIVER S-9, AROCLOR 1254, Method: STANDARD PLATE active; positive | Test System: AMES SALMONELLA TYPHIMURIUM, Strain/Indicator: TA100, Metabolic Activation: NONE, Method: STANDARD PLATE active; positive | Test System: AMES SALMONELLA TYPHIMURIUM, Strain/Indicator: TA100, Metabolic Activation: RAT LIVER S-9, AROCLOR 1254, Method: STANDARD PLATE active; positive | Test System: AMES SALMONELLA TYPHIMURIUM, Strain/Indicator: TA102, Metabolic Activation: NONE, Method: STANDARD PLATE active; positive | Test System: AMES SALMONELLA TYPHIMURIUM, Strain/Indicator: TA102, Metabolic Activation: RAT LIVER S-9, AROCLOR 1254, Method: STANDARD PLATE active; positive

CN(C)c1ncnc2nc[nH]c12
active: Test System: AMES SALMONELLA TYPHIMURIUM, Strain/Indicator: TA1535, Metabolic Activation: NONE, Method: PREINCUBATION active; positive | Test System: AMES SALMONELLA TYPHIMURIUM, Strain/Indicator: TA1535, Metabolic Activation: RAT, LIVER, S9, Method: PREINCUBATION active; positive
inactive: [3] inactive; negative | Test System: AMES SALMONELLA TYPHIMURIUM, Strain/Indicator: TA98, Metabolic Activation: RAT, LIVER, S9, Method: PREINCUBATION inactive; negative | [4] inactive; negative | Test System: AMES SALMONELLA TYPHIMURIUM, Strain/Indicator: TA100, Metabolic Activation: RAT, LIVER, S9, Method: PREINCUBATION inactive; negative | Test System: AMES SALMONELLA TYPHIMURIUM, Strain/Indicator: TA1537, Metabolic Activation: NONE, Method: PREINCUBATION inactive; negative | Test System: AMES SALMONELLA TYPHIMURIUM, Strain/Indicator: TA1537, Metabolic Activation: RAT, LIVER, S9, Method: PREINCUBATION inactive; negative | Test System: E. COLI, Strain/Indicator: WP2UVRA, Metabolic Activation: NONE, Method: PREINCUBATION inactive; negative | Test System: E. COLI, Strain/Indicator: WP2UVRA, Metabolic Activation: RAT, LIVER, S9, Method: PREINCUBATION inactive; negative

Cc1ccc([N+](=O)[O-])c(C)c1
inactive: [3] inactive; negative | Test System: AMES SALMONELLA TYPHIMURIUM, Strain/Indicator: TA98, Metabolic Activation: RAT, LIVER, S-9, KANECHLOR 500, Method: PREINCUBATION inactive; negative | [4] inactive; negative

CC(=O)Nc1ccc(Oc2ccc(N(OC(C)=O)C(C)=O)cc2)cc1
active: Test System: AMES SALMONELLA TYPHIMURIUM, Strain/Indicator: TA98(1,8-DNP6), Metabolic Activation: NONE, Method: PREINCUBATION active; positive | Test System: AMES SALMONELLA TYPHIMURIUM, Strain/Indicator: TA98(1,8-DNP6), Metabolic Activation: RAT, LIVER, S-9, AROCLOR 1254, Method: PREINCUBATION active; positive | Test System: AMES SALMONELLA TYPHIMURIUM, Strain/Indicator: TA98(NR), Metabolic Activation: NONE, Method: PREINCUBATION active; positive | Test System: AMES SALMONELLA TYPHIMURIUM, Strain/Indicator: TA98(NR), Metabolic Activation: RAT, LIVER, S-9, AROCLOR 1254, Method: PREINCUBATION active; positive | [3] active; positive | Test System: AMES SALMONELLA TYPHIMURIUM, Strain/Indicator: TA98, Metabolic Activation: RAT, LIVER, S-9, AROCLOR 1254, Method: PREINCUBATION active; positive | Test System: AMES SALMONELLA TYPHIMURIUM, Strain/Indicator: TA100(NR), Metabolic Activation: NONE, Method: PREINCUBATION active; positive | Test System: AMES SALMONELLA TYPHIMURIUM, Strain/Indicator: TA100(NR), Metabolic Activation: RAT, LIVER, S-9, AROCLOR 1254, Method: PREINCUBATION active; positive | [4] active; positive | [1] active; positive

O=C1c2ccccc2-c2cccc3cccc1c23
inactive: [2] inactive; negative
active: Test System: AMES SALMONELLA TYPHIMURIUM, Strain/Indicator: TA98, Metabolic Activation: RAT, LIVER, S-9, AROCLOR 1254, Method: STANDARD PLATE active; positive | Test System: AMES SALMONELLA TYPHIMURIUM, Strain/Indicator: TA100, Metabolic Activation: RAT, LIVER, S-9, AROCLOR 1254, Method: STANDARD PLATE active; positive
